The NIST ThermoML archive (doi:10.1007/s10765-013-1527-7)

Assay: xn = mol fraction of the nth substance listed
Conditions: 303 K, 101 kPa, Liquid; for speed of sound: Linear variable-path acoustic interferometer; for mass density: Pycnometric method

CC(C)=O [acetone] + Cc1ccccc1
speed of sound [m/s]
Conditions	x1 = 0.135	x1 = 0.27	x1 = 0.331	x1 = 0.456	x1 = 0.51	x1 = 0.605	x1 = 0.745	x1 = 0.831	x1 = 0.937
Frequency=1 MHz	946	–	–	–	–	–	–	–	–
Frequency=3 MHz	1040	1032	1020	1000	981	965	943	–	1028
Frequency=5 MHz	1150	1130	1102	1080	1040	1010	1000	1150	1230

Conditions	mass density [kg/m3]
x1 = 0.135	850
x1 = 0.27	840
x1 = 0.331	836
x1 = 0.456	827
x1 = 0.51	823
x1 = 0.605	817
x1 = 0.745	807
x1 = 0.831	800
x1 = 0.937	793
x1 = 1	789

Cc1ccccc1 [toluene] + CC(C)=O
Conditions	mass density [kg/m3]
x2 = 0	860
